# Values joined by “and” are separate entries in the source; they are usually repeats but may differ in a detail not shown here. Equal entries are not always repeated.
# Experiments:
# mGluR3 [1] = target: mGluR3 (Rattus norvegicus, UniProt P31422, INS669ASEIGTGFPFDPHYVEVLGERMHYVDVGPRDGTPVLFLHGNPTSSYVWRNIIPHVAPTHRCIAPDLIGMGKSDKPDLGYFFDDHVRFMDAFIEALGLEEVVLVIHDWGSALGFHWAKRNPERVKGIAFMEFIRPIPTWDEWPEFARETFQAFRTTDVGRKLIIDQNVFIEGTLPMGVVRPLTEVEMDHYREPFLNPVDREPLWRFPNELPIAGEPANIVALVEEYMDWLHQSPVPKLLFWGTPGVLIPPAEAARLAKSLPNCKAVDIGPGLNLLQEDNPDLIGSEIARWLSTLEISGLE); test: Inter-TMD FRET sensor (HaloTag in ICL2), live cells; conditions: for FRET response amplitude: mGluR3, inter-TMD FRET;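 for all read-outs here: receptor HaloTag labeled with JF549 donor and JF646 acceptor (1:3), FRET taken as acceptor over summed donor plus acceptor fluorescence intensity, imaged at room temperature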
# mGluR3-3xTM4_W = target: T1, mGluR3-3xTM4_W (Rattus norvegicus, UniProt P31422, F690W/G694W/S686W); test: Calcium imaging in HEK 293 T cells; type: cell-based; conditions: for Calcium response amplitude: normalized to saturating glutamate
# T1 construct: expressed in transfected cells; host or cells: HEK 293 T
# Experimental: (§1) We tested this by introducing bulky, hydrophobic tryptophan residues into outward facing residues of TM4 to disrupt inter-subunit interaction.
# (§2) Approximately 30 ROIs were analyzed per movie.
# mGluR2-3xTM4_W = target: T2, mGluR2-3xTM4_W (Rattus norvegicus, UniProt P31421, A677W/A681W/A685W); test: Calcium imaging in HEK 293 T cells; type: cell-based; conditions: normalized to 1 mM glutamate, replicates
# T2 construct: expressed in transfected cells; host or cells: HEK 293 T
# Experimental: as §1, §2
# mGluR2-I779A = target: T3, mGluR2-I779A (Rattus norvegicus, UniProt P31421, I779A); test: Inter-TMD FRET sensor (HaloTag in ICL2), live cells; type: cell-based; conditions: for FRET response amplitude: mGluR2-I779A, inter-TMD FRET
# T3 construct: we performed calcium imaging experiments with mutations in the full-length mGluR2 background; expressed in transfected cells; host or cells: HEK 293 T
# Text: Next, we asked how perturbing the TM6 interface would alter the conformational dynamics detected by our TMD FRET sensors.
# mGluR2-F584I-G587T = target: T4, mGluR2-F584I-G587T (Rattus norvegicus, UniProt P31421, F584I/G587T); test: Calcium imaging in HEK 293 T cells; type: cell-based
# T4 construct: calcium imaging experiments with mutations in the full-length mGluR2 background; expressed in transfected cells; host or cells: HEK 293T
# Experimental: as §2
# mGluR2-A726S-G730I-A733T = target: T5, mGluR2-A726S-G730I-A733T (Rattus norvegicus, UniProt P31421, A726S/A733T/G730I); test: Calcium imaging in HEK 293 T cells; type: cell-based
# T5 construct: calcium imaging experiments with mutations in the full-length mGluR2 background; expressed in transfected cells; host or cells: HEK 293T
# Experimental: as §2
# mGluR2-AA695SV = target: T6, mGluR2-AA695SV (Rattus norvegicus, UniProt P31421, A695S/A696V); test: Calcium imaging in HEK 293 T cells; type: cell-based
# T6 construct: calcium imaging experiments with mutations in the full-length mGluR2 background; expressed in transfected cells; host or cells: HEK 293T
# Experimental: as §2
# mGluR2-P778A = target: T7, mGluR2-P778A (Rattus norvegicus, UniProt P31421, P778A); test: Calcium imaging in HEK 293 T cells; type: cell-based
# T7 construct: we performed calcium imaging experiments with mutations in the full-length mGluR2 background; expressed in transfected cells; host or cells: HEK 293 T
# Experimental: as §2
# mGluR3 [2] = target: mGluR3 (Rattus norvegicus, UniProt P31422); test: GIRK channel whole cell patch clamp in HEK 293 T cells; conditions: for GIRK current amplitude: mGluR3
# mGluR2-3xTM4 [3] = target: T8, mGluR2-3xTM4 (Rattus norvegicus, UniProt P31421, A677S/A681F/A685G/INS660ASEIGTGFPFDPHYVEVLGERMHYVDVGPRDGTPVLFLHGNPTSSYVWRNIIPHVAPTHRCIAPDLIGMGKSDKPDLGYFFDDHVRFMDAFIEALGLEEVVLVIHDWGSALGFHWAKRNPERVKGIAFMEFIRPIPTWDEWPEFARETFQAFRTTDVGRKLIIDQNVFIEGTLPMGVVRPLTEVEMDHYREPFLNPVDREPLWRFPNELPIAGEPANIVALVEEYMDWLHQSPVPKLLFWGTPGVLIPPAEAARLAKSLPNCKAVDIGPGLNLLQEDNPDLIGSEIARWLSTLEISGLE); test: Inter-TMD FRET sensor (HaloTag in ICL2), live cells; type: cell-based
# T8 construct: expressed in transfected cells; host or cells: HEK 293T
# mGluR2-C121A = target: T9, mGluR2-C121A (Rattus norvegicus, UniProt P31421, C121A); test: SiMPull subunit counting in the presence of ligands; conditions: SNAP-mGluR2-C121A in presence of the ligand; single replicates per experiment day
# T9 construct: expressed in transfected cells; host or cells: HEK 293 T (detergent lysate, pulled down by anti-HA antibody)
# mGluR2-3xTM4 [4] = target: mGluR2-3xTM4 (Rattus norvegicus, UniProt P31421, A677S/A681F/A685G); test: GIRK channel whole cell patch clamp in HEK 293 T cells
# mGluR2-C121A-I779A = target: T10, mGluR2-C121A-I779A (Rattus norvegicus, UniProt P31421, C121A/I779A); test: SiMPull subunit counting in the presence of ligands; conditions: SNAP-mGluR2-C121A-I779A in presence of the ligand; single replicates per experiment day
# T10 construct: expressed in transfected cells; host or cells: HEK 293 T (detergent lysate, pulled down by anti-HA antibody)
# T10 sequence (P31421 19-872 C121A/I779A): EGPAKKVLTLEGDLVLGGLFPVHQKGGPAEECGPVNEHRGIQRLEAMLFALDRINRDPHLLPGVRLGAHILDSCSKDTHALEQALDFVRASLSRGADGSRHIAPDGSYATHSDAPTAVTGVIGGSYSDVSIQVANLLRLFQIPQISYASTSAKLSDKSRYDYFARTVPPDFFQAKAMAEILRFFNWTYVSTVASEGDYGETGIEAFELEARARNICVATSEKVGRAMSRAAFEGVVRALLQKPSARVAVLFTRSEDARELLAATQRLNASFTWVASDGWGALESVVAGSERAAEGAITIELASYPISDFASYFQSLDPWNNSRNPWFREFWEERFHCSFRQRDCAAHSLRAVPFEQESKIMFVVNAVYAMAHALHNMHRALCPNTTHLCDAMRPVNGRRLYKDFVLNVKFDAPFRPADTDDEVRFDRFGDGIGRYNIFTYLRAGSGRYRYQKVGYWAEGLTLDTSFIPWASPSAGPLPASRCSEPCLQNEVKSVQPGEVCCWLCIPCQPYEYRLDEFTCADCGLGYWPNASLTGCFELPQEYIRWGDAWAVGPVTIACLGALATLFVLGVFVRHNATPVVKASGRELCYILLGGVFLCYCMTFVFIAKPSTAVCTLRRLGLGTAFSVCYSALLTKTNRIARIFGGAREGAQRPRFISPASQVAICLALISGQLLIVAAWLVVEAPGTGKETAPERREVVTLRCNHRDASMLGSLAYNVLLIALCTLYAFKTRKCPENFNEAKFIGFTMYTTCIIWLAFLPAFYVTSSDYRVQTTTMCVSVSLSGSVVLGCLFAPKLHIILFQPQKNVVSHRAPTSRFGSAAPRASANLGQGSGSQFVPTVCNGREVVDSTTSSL
# T2 sequence (P31421 19-872 A677W/A681W/A685W): as the sequence (P31421 19-872 C121A/I779A) above, with A103C, A659W, A663W, A667W, A761I counted along it
# T4 sequence (P31421 19-872 F584I/G587T): as the sequence (P31421 19-872 C121A/I779A) above, with A103C, F566I, G569T, A761I counted along it
# T5 sequence (P31421 19-872 A726S/G730I/A733T): as the sequence (P31421 19-872 C121A/I779A) above, with A103C, A708S, G712I, A715T, A761I counted along it
# mGluR2-3xTM4 (Rattus norvegicus, UniProt P31421, A677S/A681F/A685G), sequence (P31421 19-872 A677S/A681F/A685G): as the sequence (P31421 19-872 C121A/I779A) above, with A103C, A659S, A663F, A667G, A761I counted along it
# UniProt P31422, sequence (P31422 with tags, fused parts or gaps with the stated changes): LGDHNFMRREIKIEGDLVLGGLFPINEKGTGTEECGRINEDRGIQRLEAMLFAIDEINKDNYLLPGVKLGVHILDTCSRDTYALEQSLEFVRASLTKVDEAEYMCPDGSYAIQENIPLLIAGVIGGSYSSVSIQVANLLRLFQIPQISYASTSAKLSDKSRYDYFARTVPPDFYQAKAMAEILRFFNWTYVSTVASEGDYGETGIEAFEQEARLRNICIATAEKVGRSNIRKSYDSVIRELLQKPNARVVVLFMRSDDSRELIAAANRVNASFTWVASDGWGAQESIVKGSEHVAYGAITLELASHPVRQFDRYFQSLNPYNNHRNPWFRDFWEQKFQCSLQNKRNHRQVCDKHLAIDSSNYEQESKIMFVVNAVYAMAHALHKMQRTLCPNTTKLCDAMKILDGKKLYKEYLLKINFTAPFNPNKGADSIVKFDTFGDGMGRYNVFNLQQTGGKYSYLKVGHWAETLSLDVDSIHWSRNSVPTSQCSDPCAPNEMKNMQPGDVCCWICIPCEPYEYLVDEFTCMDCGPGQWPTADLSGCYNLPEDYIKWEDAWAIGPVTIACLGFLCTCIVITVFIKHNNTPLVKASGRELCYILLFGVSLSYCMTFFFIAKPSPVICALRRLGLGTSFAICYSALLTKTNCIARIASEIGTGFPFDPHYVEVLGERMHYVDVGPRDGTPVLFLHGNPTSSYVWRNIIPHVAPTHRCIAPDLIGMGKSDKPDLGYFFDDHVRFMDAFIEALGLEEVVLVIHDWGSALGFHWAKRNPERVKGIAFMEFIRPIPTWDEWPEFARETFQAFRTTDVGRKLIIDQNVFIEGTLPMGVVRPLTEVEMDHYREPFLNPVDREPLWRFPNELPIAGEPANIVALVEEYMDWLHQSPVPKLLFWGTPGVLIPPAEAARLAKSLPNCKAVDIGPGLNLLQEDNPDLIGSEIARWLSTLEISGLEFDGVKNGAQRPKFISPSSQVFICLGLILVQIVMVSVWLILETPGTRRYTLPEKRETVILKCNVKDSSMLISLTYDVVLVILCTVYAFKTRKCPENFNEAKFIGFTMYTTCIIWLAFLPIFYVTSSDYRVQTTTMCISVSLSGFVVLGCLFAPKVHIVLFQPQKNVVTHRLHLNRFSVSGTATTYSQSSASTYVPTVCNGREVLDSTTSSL
# T1 sequence (P31422 23-879 S686W/F690W/G694W): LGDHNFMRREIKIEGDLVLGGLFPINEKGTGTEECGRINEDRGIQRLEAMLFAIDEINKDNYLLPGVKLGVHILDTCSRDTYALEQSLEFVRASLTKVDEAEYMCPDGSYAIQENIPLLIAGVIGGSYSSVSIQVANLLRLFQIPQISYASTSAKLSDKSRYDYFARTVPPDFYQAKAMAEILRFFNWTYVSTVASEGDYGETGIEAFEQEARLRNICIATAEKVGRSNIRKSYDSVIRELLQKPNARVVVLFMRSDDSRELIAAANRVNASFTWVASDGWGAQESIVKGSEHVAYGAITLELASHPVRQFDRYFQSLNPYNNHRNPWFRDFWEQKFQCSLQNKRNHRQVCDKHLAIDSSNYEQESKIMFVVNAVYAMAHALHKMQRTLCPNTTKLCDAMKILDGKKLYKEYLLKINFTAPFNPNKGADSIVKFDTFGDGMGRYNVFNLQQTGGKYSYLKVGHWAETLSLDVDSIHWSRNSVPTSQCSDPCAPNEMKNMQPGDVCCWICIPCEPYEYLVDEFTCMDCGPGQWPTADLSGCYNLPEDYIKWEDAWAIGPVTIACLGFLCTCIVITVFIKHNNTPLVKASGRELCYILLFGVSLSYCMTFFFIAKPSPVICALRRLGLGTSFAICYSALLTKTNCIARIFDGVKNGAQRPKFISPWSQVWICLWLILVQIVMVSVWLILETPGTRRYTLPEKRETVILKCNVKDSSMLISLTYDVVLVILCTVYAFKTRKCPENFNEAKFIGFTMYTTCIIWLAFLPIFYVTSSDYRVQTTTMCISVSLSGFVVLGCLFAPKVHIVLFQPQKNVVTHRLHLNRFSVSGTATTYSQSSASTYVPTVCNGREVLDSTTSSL
# T9 sequence (P31421 19-872 C121A): as the sequence (P31421 19-872 C121A/I779A) above, with A761I counted along it
# T3 sequence (P31421 19-872 I779A): as the sequence (P31421 19-872 C121A/I779A) above, with A103C counted along it
# T8 sequence (P31421 with tags, fused parts or gaps with the stated changes): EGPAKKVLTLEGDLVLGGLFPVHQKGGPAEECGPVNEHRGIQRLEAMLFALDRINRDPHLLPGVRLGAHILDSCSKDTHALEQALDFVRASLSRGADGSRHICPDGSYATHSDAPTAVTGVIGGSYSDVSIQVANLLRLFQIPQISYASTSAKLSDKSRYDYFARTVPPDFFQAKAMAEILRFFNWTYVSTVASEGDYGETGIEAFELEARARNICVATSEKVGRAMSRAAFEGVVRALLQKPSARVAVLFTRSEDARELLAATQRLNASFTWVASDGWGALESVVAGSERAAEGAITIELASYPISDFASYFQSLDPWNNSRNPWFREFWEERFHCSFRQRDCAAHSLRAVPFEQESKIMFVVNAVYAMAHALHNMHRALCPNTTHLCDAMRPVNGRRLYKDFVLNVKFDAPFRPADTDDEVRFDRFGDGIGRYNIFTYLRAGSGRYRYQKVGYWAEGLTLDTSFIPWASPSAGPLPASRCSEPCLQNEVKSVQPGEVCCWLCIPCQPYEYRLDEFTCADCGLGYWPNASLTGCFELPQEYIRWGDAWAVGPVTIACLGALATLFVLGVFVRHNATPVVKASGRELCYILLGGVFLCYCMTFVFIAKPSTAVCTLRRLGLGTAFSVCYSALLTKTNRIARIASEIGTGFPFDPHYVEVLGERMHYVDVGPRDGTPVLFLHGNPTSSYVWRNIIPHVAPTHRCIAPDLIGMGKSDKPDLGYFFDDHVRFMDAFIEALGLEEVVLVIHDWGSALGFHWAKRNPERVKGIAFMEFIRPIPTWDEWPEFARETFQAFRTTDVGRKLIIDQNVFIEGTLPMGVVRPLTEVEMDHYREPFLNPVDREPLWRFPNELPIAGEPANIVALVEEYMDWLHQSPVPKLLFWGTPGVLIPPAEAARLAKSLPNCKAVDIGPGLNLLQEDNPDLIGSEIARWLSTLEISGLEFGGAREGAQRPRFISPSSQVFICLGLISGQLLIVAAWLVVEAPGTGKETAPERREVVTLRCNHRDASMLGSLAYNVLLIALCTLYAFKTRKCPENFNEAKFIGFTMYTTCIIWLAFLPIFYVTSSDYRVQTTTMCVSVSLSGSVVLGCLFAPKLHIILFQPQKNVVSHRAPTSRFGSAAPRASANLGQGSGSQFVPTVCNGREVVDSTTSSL
# mGluR3 (Rattus norvegicus, UniProt P31422), sequence (P31422 23-879): as the sequence (P31422 23-879 S686W/F690W/G694W) above, with W664S, W668F, W672G counted along it
# T7 sequence (P31421 19-872 P778A): as the sequence (P31421 19-872 C121A/I779A) above, with A103C, P760A, A761I counted along it
# T6 sequence (P31421 19-872 A695S/A696V): as the sequence (P31421 19-872 C121A/I779A) above, with A103C, A677S, A678V, A761I counted along it
smiles,measurement,setting,value
N[C@@H](CCC(=O)O)C(=O)O [glutamate],FRET response amplitude,mGluR3 [1]; Glutamate 1 nM,0.00
same,FRET response amplitude,mGluR3 [1]; Glutamate 1 uM,0.66 and 0.83 and 0.95 and 0.97 and 0.93 and 0.79 and 0.73
same,FRET response amplitude,mGluR3 [1]; Glutamate 10 uM,0.80 and 0.95 and 0.97 and 1.05 and 0.98 and 0.87
same,FRET response amplitude,mGluR3 [1]; Glutamate 100 uM,0.99 and 0.97 and 0.96 and 1.00
same,FRET response amplitude,mGluR3 [1]; Glutamate 1 mM,1.00
same,EC50,"mGluR3 [1]; read-out: Glutamate EC50, inter-TMD FRET, normalized to saturating (1 mM) glutamate, unit inferred",0.23 ± 0.08 µM
same,Calcium response amplitude,"mGluR3-3xTM4_W; Glutamate 10 nM, replicates",0.00
same,Calcium response amplitude,"mGluR3-3xTM4_W; Glutamate 100 nM, replicates",0.00
same,Calcium response amplitude,"mGluR3-3xTM4_W; Glutamate 1 uM, replicates",0.09 and 0.064 and 0.00
same,Calcium response amplitude,"mGluR3-3xTM4_W; Glutamate 10 uM, replicates",0.20 and 0.28 and 0.12 and 0.22
same,Calcium response amplitude,"mGluR3-3xTM4_W; Glutamate 100 uM, replicates",0.41 and 0.50
same,Calcium response amplitude,mGluR3-3xTM4_W; Glutamate 1 mM,0.86
same,Calcium response amplitude,mGluR3-3xTM4_W; Glutamate 10 mM,1.00
same,EC50,"mGluR3-3xTM4_W; read-out: Glutamate EC50, calcium imaging, normalized to saturating (1 mM) glutamate, unit inferred",186 ± 0.27 µM
same,Calcium response amplitude,mGluR2-3xTM4_W; Glutamate 100 nM,0.00
same,Calcium response amplitude,mGluR2-3xTM4_W; Glutamate 1 uM,0.00 and 0.08 and 0.04
same,Calcium response amplitude,mGluR2-3xTM4_W; Glutamate 10 uM,0.55 and 0.51
same,Calcium response amplitude,mGluR2-3xTM4_W; Glutamate 100 uM,1.00 and 0.99 and 0.76
same,Calcium response amplitude,mGluR2-3xTM4_W; Glutamate 1 mM,1.00
same,FRET response amplitude,mGluR2-I779A; Glutamate 10 nM,0.00
same,FRET response amplitude,mGluR2-I779A; Glutamate 100 nM,0.00
same,FRET response amplitude,mGluR2-I779A; Glutamate 1 uM,0.00
same,FRET response amplitude,mGluR2-I779A; Glutamate 100 uM,0.75 and 0.90 and 0.82
same,FRET response amplitude,mGluR2-I779A; Glutamate 1 mM,1.00
same,change in glutamate EC50 compared to mGluR2,"mGluR2-I779A; inter-TMD FRET sensor, right shift",two-fold
same,Calcium response amplitude,mGluR2-F584I-G587T; Glutamate 100 nM,0.00
same,Calcium response amplitude,mGluR2-F584I-G587T; Glutamate 3 uM,0.62 and 0.57 and 0.48
same,Calcium response amplitude,mGluR2-F584I-G587T; Glutamate 10 uM,0.87 and 0.71
same,Calcium response amplitude,mGluR2-A726S-G730I-A733T; Glutamate 100 nM,0.00
same,Calcium response amplitude,mGluR2-A726S-G730I-A733T; Glutamate 3 uM,0.71 and 0.60
same,Calcium response amplitude,mGluR2-A726S-G730I-A733T; Glutamate 10 uM,0.93 and 0.97 and 0.56
same,Calcium response amplitude,mGluR2-A726S-G730I-A733T; Glutamate 100 uM,1.00
same,Calcium response amplitude,mGluR2-A726S-G730I-A733T; Glutamate 1 mM,1.00
same,Calcium response amplitude,mGluR2-AA695SV; Glutamate 10 nM,0.00
same,Calcium response amplitude,mGluR2-AA695SV; Glutamate 100 nM,0.00
same,Calcium response amplitude,mGluR2-AA695SV; Glutamate 10 uM,0.72 and 0.97
same,Calcium response amplitude,mGluR2-AA695SV; Glutamate 100 uM,1.00
same,Calcium response amplitude,mGluR2-AA695SV; Glutamate 1 mM,1.00
same,Calcium response amplitude,mGluR2-P778A; Glutamate concentration 100 nM,0.00
same,Calcium response amplitude,mGluR2-P778A; Glutamate concentration 1 uM,0.48 and 0.50
same,Calcium response amplitude,mGluR2-P778A; Glutamate concentration 10 uM,0.94 and 0.87
same,Calcium response amplitude,mGluR2-P778A; Glutamate concentration 1 mM,1.00
same,GIRK current amplitude,mGluR3 [2]; Glutamate 100 nM,0.155 and 0.145 and 0.126 and 0.149
same,GIRK current amplitude,mGluR3 [2]; Glutamate 1 uM,0.541 and 0.995 and 0.692
same,GIRK current amplitude,mGluR3 [2]; Glutamate 10 uM,0.818 and 1.150 and 0.770 and 0.856 and 1.007
same,GIRK current amplitude,mGluR3 [2]; Glutamate 100 uM,1.000
same,EC50,"mGluR3 [2]; read-out: Glutamate EC50, GIRK activation, normalized to saturating (1 mM) glutamate, unit inferred",0.43 ± 0.1 µM
same,FRET response amplitude,mGluR2-3xTM4 [3]; Glutamate 10 nM,0.00
same,FRET response amplitude,mGluR2-3xTM4 [3]; Glutamate 100 nM,0.0446
same,FRET response amplitude,mGluR2-3xTM4 [3]; Glutamate 1 uM,0.14 and 0.10 and 0.11
same,FRET response amplitude,mGluR2-3xTM4 [3]; Glutamate 10 uM,0.89 and 0.71
same,FRET response amplitude,mGluR2-3xTM4 [3]; Glutamate 100 uM,1.00
same,FRET response amplitude,mGluR2-3xTM4 [3]; Glutamate 1 mM,1.00
same,% Dimerization,mGluR2-C121A,86.45% and 81.10% and 91.37% and 96.00% and 70.30% and 76.67%
same,GIRK current amplitude,mGluR2-3xTM4 [4]; Glutamate 10 nM,0.000
same,GIRK current amplitude,mGluR2-3xTM4 [4]; Glutamate 100 uM,0.955 and 1.148 and 1.101
same,GIRK current amplitude,mGluR2-3xTM4 [4]; Glutamate 1 mM,1.000
same,% Dimerization,mGluR2-C121A-I779A,54.00% and 69.67% and 69.76% and 51.05% and 59.66% and 56.67%
